According to patent EP4198126B1 (priority 2021, dated 2023):
Like-named read-outs stand apart in the source and are kept apart here.

Tests used:
HEK293 eTLR cells [1] = details: for HDR rates: compounds added 24 hours post-transfection, FACS 72 h after transfection, Figure 2A
HEK293 eTLR cells [2] = details: treated four hours before transfection; FACS 72 h after transfection; Figure 3
[3] = test system: CRISPR-mediated homology-directed repair (HDR); details: description of the known compound; cited from earlier work

| Compound | HDR rates (HEK293 eTLR cells [1]) | concentration at which the HDR rates are maximally increased (HEK293 eTLR cells [1]; range tested 0.5 to 2 µM, Figure 2B) [µM] | HDR rates (HEK293 eTLR cells [2]) | enhancement of CRISPR-mediated homology-directed repair (HDR) [3] |
| --- | --- | --- | --- | --- |
| Cc1cc2ncnn2cc1Nc1ncc2c(n1)n(C1CCOCC1)c(=O)n2C [AZD-7648] | increased HDR rates | 0.5 | significantly higher HDR rates than ITD Alt-R HDR Enhancer V2 |  |
| COc1ccc([C@@H](O)c2cc(-c3ncnc4cc(N5CCOCC5)ccc34)c(F)cc2Cl)nn1 [M3814] | increased HDR rates |  | significantly higher HDR rates than ITD Alt-R HDR Enhancer V2 |  |
| c1cnccn1 [SCR7 pyrazine] |  |  |  | up to 19 fold |
| NU7441 | increased HDR rates |  |  |  |
